Measurements taken from US20140023611A1 (priority 2010, published 2014).

Tests used:
[1] = Determination of compound Cmax and AUC after oral gavage (plasma LC-MS/MS); type: in vivo, Sprague-Dawley rats; settings: Sprague-Dawley, rat, plasma, po, Structure (I) examples, Table 15, actual oral dose 3-15 mg/kg, plasma 0.5-4 h
Method in brief: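 Sprague-Dawley rats dosed by oral gavage at nominal 2.5 or 10 mg/kg; blood drawn at 0.5, 1, 2 and 4 h into K2EDTA. Plasma protein-precipitated with acetonitrile plus internal standard and analysed by LC-MS/MS against a plasma standard curve to derive Cmax and AUC.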

[2] = Stability of compounds in simulated gastric fluid (SGF); type: in vitro ADME; settings: simulated gastric fluid (3 mg/mL pepsin), incubation time 6 hr, relative to t=0
Method: (§1) Test compounds were incubated at […] in simulated gastric fluid (SGF; standard USP solution with 3 mg/mL pepsin) or simulated intestinal fluid (SIF; standard USP solution with 3 mg/mL pancreatin) for 3 hr or 6 hr. HPLC-UV or HPLC-MS were used to determine test compound levels using peak area %. Results (Table 14) were reported as the percentage of test compound remaining after incubation in a given condition relative to test compound present at t=0 in the same condition.

rat NaP2b (SLC34A2) = target: T1, rat NaP2b (SLC34A2) (Rattus norvegicus, UniProt Q9JJ09); test: Inhibition of NaP2b-mediated Pi (33P) uptake in transfected HEK293 cells, rat NaP2b; type: cell-based; settings: 33P Pi uptake, 0.1 mM phosphate, value given as pIC50 range
T1 construct: host or cells: HEK293
T1 sequence (Q9JJ09 1-695): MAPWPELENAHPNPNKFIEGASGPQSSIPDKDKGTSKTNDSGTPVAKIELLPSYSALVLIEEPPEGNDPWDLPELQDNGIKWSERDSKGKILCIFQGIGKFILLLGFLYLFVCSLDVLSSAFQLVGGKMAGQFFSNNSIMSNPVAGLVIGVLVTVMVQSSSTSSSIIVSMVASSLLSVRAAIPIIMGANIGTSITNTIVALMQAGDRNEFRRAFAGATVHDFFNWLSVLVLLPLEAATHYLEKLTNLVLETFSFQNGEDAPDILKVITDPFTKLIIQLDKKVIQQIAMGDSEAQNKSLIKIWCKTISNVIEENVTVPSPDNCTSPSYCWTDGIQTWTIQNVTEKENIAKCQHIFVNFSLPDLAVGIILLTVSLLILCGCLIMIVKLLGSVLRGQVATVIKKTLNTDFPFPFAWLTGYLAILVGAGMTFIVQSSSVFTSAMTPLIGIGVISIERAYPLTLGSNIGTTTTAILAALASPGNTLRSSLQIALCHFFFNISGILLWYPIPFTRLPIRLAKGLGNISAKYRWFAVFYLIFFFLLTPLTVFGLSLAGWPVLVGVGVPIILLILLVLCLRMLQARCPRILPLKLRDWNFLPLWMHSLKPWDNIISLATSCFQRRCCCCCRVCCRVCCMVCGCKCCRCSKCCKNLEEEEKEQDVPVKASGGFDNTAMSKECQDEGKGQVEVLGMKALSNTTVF
Method in brief: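 HEK293 cells were transiently transfected with NaP2b cDNA using Lipofectamine and grown near confluence. Compounds were tested at twelve concentrations from 0.1 nM to 30 uM in duplicate, and 33P-phosphate uptake was counted by scintillation after lysis. Results are expressed as pIC50.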

[3] = Stability of compounds in simulated intestinal fluid (SIF); type: in vitro ADME; settings: simulated intestinal fluid (3 mg/mL pancreatin), incubation time 6 hr, relative to t=0
Method: as §1

SMILES	AUC [1]	Cmax [1]	% remaining, SGF [2]	IC50 (rat NaP2b (SLC34A2))	% remaining, SIF [3]
CN(CC(=O)N1CCN(CCOCCO)CC1)C(=O)c1cccc(C(=O)Nc2ccc(N3CCCCC3)cc2-c2cc(C(=O)N[C@H]3CCCc4ccccc43)ccn2)c1 [Example 246, (S)—N1-(2-(4-(2-(2-hydroxyethoxy)ethyl)piperazin-1-yl)-2-oxoethyl)-N1-methyl-N3-(4-(piperidin-1-yl)-2-(4-(1,2,3,4-tetrahydronaphthalen-1-ylcarbamoyl)pyridin-2-yl)phenyl)isophthalamide]	< 10 ng·h/mL	< 10 ng/mL	>80%	1 to 7.94 µM	>80%
CN(CCOCCOCCOCCC(=O)O)C(=O)c1cccc(C(=O)Nc2ccc(N3CCCCC3)cc2-c2cc(C(=O)NCc3cccc(C(F)(F)F)c3)ccn2)c1 [Example 248, 3-[2-(2-{2-[N-methyl-1-(3-{[4-(piperidin-1-yl)-2-[4-({[3-(trifluoromethyl)phenyl]methyl}carbamoyl)pyridin-2-yl]phenyl}carbamoyl}phenyl)formamido]ethoxy}ethoxy)ethoxy]propanoic acid]	< 10 ng·h/mL	< 10 ng/mL	>80%	10 to 31.6 µM	>80%
CN(CCOCCOCCOCCC(=O)N1CCN(CCOCCO)CC1)C(=O)c1cccc(C(=O)Nc2ccc(N3CCCCC3)cc2-c2cc(C(=O)N[C@H]3CCCc4ccccc43)ccn2)c1 [Example 250, 1-N-(2-{2-[2-(3-{4-[2-(2-hydroxyethoxy)ethyl]piperazin-1-yl}-3-oxopropoxy)ethoxy]ethoxy}ethyl)-1-N-methyl-3-N-[4-(piperidin-1-yl)-2-(4-{[(1S)-1,2,3,4-tetrahydronaphthalen-1-yl]carbamoyl}pyridin-2-yl)phenyl]benzene-1,3-dicarboxamide]	< 10 ng·h/mL	< 10 ng/mL	>80%	1 to 7.94 µM	>80%
COCCOCCOCCOCCOCCOCCOCCN(C)C(=O)[C@H]1CCCN(C(=O)c2cccc(C(=O)Nc3ccc(N4CCCCC4)cc3-c3cc(C(=O)N[C@H]4CCCc5ccccc54)ccn3)c2)C1 [Example 255, 2-(2-(3-((S)-3-(2,5,8,11,14,17,20-heptaoxadocosan-22-yl(methyl)carbamoyl)piperidine-1-carbonyl)benzamido)-5-(piperidin-1-yl)phenyl)-N—((S)-1,2,3,4-tetrahydronaphthalen-1-yl)isonicotinamide]	< 10 ng·h/mL	< 10 ng/mL	>80%	1 to 7.94 µM	>80%
O=C(O)CCOCCOCCOCCOCCCc1cccc(C(=O)Nc2ccc(OC3CCC3)cc2-c2cc(C(=O)N[C@H]3CCCc4ccccc43)ccn2)c1 [Example 285, (S)-16-(3-((4-cyclobutoxy-2-(4-((1,2,3,4-tetrahydronaphthalen-1-yl)carbamoyl)pyridin-2-yl)phenyl)carbamoyl)phenyl)-4,7,10,13-tetraoxahexadecan-1-oic acid]	< 50 ng·h/mL	< 30 ng/mL	60-80%	< 1 µM	>80%
COCCOCCOCCOCCOCCOCCOCCN(C)CCN(C)C(=O)c1cccc(C(=O)Nc2ccc(N3CCCCC3)cc2-c2cc(C(=O)N[C@H]3CCCc4ccccc43)ccn2)c1 [Example 333, (S)—N^1-Methyl-N^1-(23-methyl-2,5,8,11,14,17,20-heptaoxa-23-azapentacosan-25-yl)-N3-(4-(piperidin-1-yl)-2-(4-(1,2,3,4-tetrahydronaphthalen-1-ylcarbamoyl)pyridin-2-yl)phenyl)isophthalamide]	< 50 ng·h/mL	< 30 ng/mL	>80%	1 to 7.94 µM	>80%

Other lines, results leading:

AUC [1]	Cmax [1]	% remaining, SGF [2]	IC50 (rat NaP2b (SLC34A2))	% remaining, SIF [3]	SMILES
< 10 ng·h/mL	< 10 ng/mL	>80%	10 to 31.6 µM	>80%	CN(CCN1CCC[C@H]1C(=O)N(C)CCOCCOCCOCCC(=O)O)C(=O)c1cccc(C(=O)Nc2ccc(N3CCCCC3)cc2-c2cc(C(=O)N[C@H]3CCCc4ccccc43)ccn2)c1 [Example 191, 2-Methyl-1-((S)-1-(2-(N-methyl-3-((4-(piperidin-1-yl)-2-(4-(((S)-1,2,3,4-tetrahydronaphthalen-1-yl)carbamoyl)pyridin-2-yl)phenyl)carbamoyl)benzamido)ethyl)pyrrolidin-2-yl)-1-oxo-5,8,11-trioxa-2-azatetradecan-14-oic acid]
< 30 ng·h/mL	< 10 ng/mL	>80%	10 to 31.6 µM	>80%	CN(CCN1CCC[C@H]1C(=O)NCCOCCOCCOCCC(=O)O)C(=O)c1cccc(C(=O)Nc2ccc(N3CCCCC3)cc2-c2cc(C(=O)N[C@H]3CCCc4ccccc43)ccn2)c1 [Example 193, 1-((S)-1-(2-(N-methyl-3-((4-(piperidin-1-yl)-2-(4-(((S)-1,2,3,4-tetrahydronaphthalen-1-yl)carbamoyl)pyridin-2-yl)phenyl)carbamoyl)benzamido)ethyl)pyrrolidin-2-yl)-1-oxo-5,8,11-trioxa-2-azatetradecan-14-oic acid]
< 30 ng·h/mL	< 30 ng/mL	>80%	1 to 7.94 µM	60-80%	COCCN(C)C(=O)N1CCN(CCN(C)Cc2cccc(C(=O)Nc3ccc(N4CCCCC4)cc3-c3cc(C(=O)NCc4cccc(C(F)(F)F)c4)ccn3)c2)CC1 [Example 209, N-(2-methoxyethyl)-N-methyl-4-(2-(methyl(3-(4-(piperidin-1-yl)-2-(4-(3-(trifluoromethyl)benzylcarbamoyl)pyridin-2-yl)phenylcarbamoyl)benzyl)amino)ethyl)piperazine-1-carboxamide]
< 30 ng·h/mL	< 10 ng/mL	>80%	10 to 31.6 µM	>80%	COCCN(C)C(=O)N1CCN(CCN(C)Cc2cccc(C(=O)Nc3ccc(N4CCCCC4)cc3-c3cc(C(=O)NCc4cccc(C(F)(F)F)c4)ccn3)n2)CC1 [Example 210, N-(2-methoxyethyl)-N-methyl-4-(2-(methyl((6-(4-(piperidin-1-yl)-2-(4-(3-(trifluoromethyl)benzylcarbamoyl)pyridin-2-yl)phenylcarbamoyl)pyridin-2-yl)methyl)amino)ethyl)piperazine-1-carboxamide]
< 10 ng·h/mL	< 10 ng/mL	>80%	10 to 31.6 µM	>80%	CN(CCOCCOCCOCCC(=O)O)C(=O)c1cccc(C(=O)Nc2ccc(Cl)cc2-c2cc(C(=O)NCc3cccc(C(F)(F)F)c3)ccn2)c1 [Example 238, 3-{2-[2-(2-{1-[3-({4-chloro-2-[4-({[3-(trifluoromethyl)phenyl]methyl}carbamoyl)pyridin-2-yl]phenyl}carbamoyl)phenyl]-N-methylformamido}ethoxy)ethoxy]ethoxy}propanoic acid]
< 10 ng·h/mL	< 10 ng/mL	>80%	1 to 7.94 µM	>80%	CN(CCN1CCCC[C@H]1C(=O)N(C)CCOCCOCCOCCC(=O)OC(C)(C)C)C(=O)c1cccc(C(=O)Nc2ccc(N3CCCCC3)cc2-c2cc(C(=O)N[C@H]3CCCc4ccccc43)ccn2)c1 [Example 240, tert-butyl 2-methyl-1-((S)-1-(2-(N-methyl-3-(4-(piperidin-1-yl)-2-(4-((S)-1,2,3,4-tetrahydronaphthalen-1-ylcarbamoyl)pyridin-2-yl)phenylcarbamoyl)benzamido)ethyl)piperidin-2-yl)-1-oxo-5,8,11-trioxa-2-azatetradecan-14-oate]
< 10 ng·h/mL	< 10 ng/mL	>80%	1 to 7.94 µM	>80%	COCCOCCOCCOCCOCCOCCOCCNC(=O)[C@H]1CCCN(C(=O)c2cccc(C(=O)Nc3ccc(N4CCCCC4)cc3-c3cc(C(=O)N[C@H]4CCCc5ccccc54)ccn3)c2)C1 [Example 256, 2-(2-(3-((S)-3-(2,5,8,11,14,17,20-heptaoxadocosan-22-ylcarbamoyl)piperidine-1-carbonyl)benzamido)-5-(piperidin-1-yl)phenyl)-N—((S)-1,2,3,4-tetrahydronaphthalen-1-yl)isonicotinamide]
